Laboratory results taken from US6013647A, “Benzoxazinedione derivatives, method of producing them and uses thereof” (Gruenenthal GmbH, priority 1997, dated 2000).
Where a SMILES comes first, the peptide text is derived from it. [ ]: non-standard residue; d: D form. Orn(N5-OH,N5-Ac) = CC(=O)N(O)CCC[C@H](N)C(=O)O

Experiments:
B. subtilis = details: literature; cited from earlier work
[1] = test system: Salmonella typhimurium enb-7; test: Siderophore efficacy, growth promotion of indicator mutant (DIN 58 940); type: cell-based; details: Salmonella enb-7; test substances 5 μg/test plate
Text: (§1) The promotion of growth can be ascertained after the addition of the test substances as external siderophores. In the indicator mutants, the synthesis of the respective siderophores, e.g. pyoverdin, pyochelin, enterobactin, aerobactin or yersiniabactin, or the biosynthesis of aromatic compounds, is blocked, or there is a lack of receptors for enterobactin, pyochelin or pyoverdin and for other important components for the bacterial transport of iron (e.g. the membrane proteins Cir, Fiu, FepA and the TonB protein also). Under conditions where there is a lack of iron, these mutants therefore cannot grow or can only grow in a very retarded manner. In particular, the following indicator mutants were used: Pseudomonas aeruginosa PAO 6609, K 407, E. coli AB 2847, Salmonella typhimurium enb-7, TA 2700, and Yersinia enterocolitica WAH 5030. The controls used were ferrioxamine E for the Pseudomonas strains, ferrioxamine G for the Salmonella strains, and ferrichrome for the E. coli strains. The test substances were each employed in an amount of 5 μg/test plate.

E. coli AB 2847 = test: as above; type: cell-based; details: test substances 5 μg/test plate
Text: as §1

[2] = test system: Pseudomonas aeruginosa PAO 6609; test: as above; type: cell-based; details: Pseud. aeruginosa PAO 6609; test substances 5 μg/test plate
Text: as §1

[3] = test system: Salmonella typhimurium TA 2700; test: as above; type: cell-based; details: Salmonella TA 2700; test substances 5 μg/test plate
Text: as §1

[4] = test system: Yersinia enterocolitica WAH 5030; test: as above; type: cell-based; details: Y. enterocol. WAH 5030; test substances 5 μg/test plate
Text: as §1

E. coli = details: literature; cited from earlier work
[5] = e.g. thalassaemia; cited from earlier work

Compound: O=C(O)CNC(=O)c1cccc(O)c1O [N-(2,3-dihydroxybenzoyl)glycine]
- siderophore activity (B. subtilis): siderophore for B. subtilis

Compound: C[C@H](NC(=O)Cn1c(=O)oc2c(O)cccc2c1=O)C(=O)O [substance 4, (8-hydroxy-2,4-dioxobenzoxazin-3-yl)-acetyl-L-alanine]
- Growth areas (diameter) of siderophore indicator strain [1]: 14 mm
- Growth areas (diameter) of siderophore indicator strain (E. coli AB 2847): 0 mm
- Growth areas (diameter) of siderophore indicator strain [2]: 0 mm
- Growth areas (diameter) of siderophore indicator strain [3]: 0 mm

Compound: ferrioxamine E [reference compound]
- Growth areas (diameter) of siderophore indicator strain [4]: 40 mm
- Growth areas (diameter) of siderophore indicator strain [2]: 35 mm

Compound: O=C(N[C@H]1COC(=O)[C@@H](NC(=O)c2cccc(O)c2O)COC(=O)[C@@H](NC(=O)c2cccc(O)c2O)COC1=O)c1cccc(O)c1O [enterobactin]
- siderophore activity (E. coli): siderophore for E. coli

Compound: O=C(N[C@@H](CO)C(=O)O)c1cccc(O)c1O [N-(2,3-dihydroxybenzoyl)-L-serine]
- siderophore activity (E. coli): effective as a siderophore

Compound: CC(=O)N(O)CCCCCNC(=O)CCC(=O)N(O)CCCCCNC(=O)CCC(=O)N(O)CCCCCN [desferrioxamine B]
- use in diseases caused by an excess of iron [5]: successfully used in diseases which are caused by an excess of iron

Compound: CC(=O)N([O-])CCC[C@@H]1NC(=O)CNC(=O)CNC(=O)CNC(=O)[C@H](CCCN([O-])C(C)=O)NC(=O)[C@H](CCCN([O-])C(C)=O)NC1=O.[Fe+3] [ferrichrome, reference compound] (cyclo(GGG[Orn(N5-OH,N5-Ac)][Orn(N5-OH,N5-Ac)][Orn(N5-OH,N5-Ac)]))
- Growth areas (diameter) of siderophore indicator strain (E. coli AB 2847): 23 mm

Compound: ferrioxamine G [reference compound]
- Growth areas (diameter) of siderophore indicator strain [1]: 38 mm
- Growth areas (diameter) of siderophore indicator strain [3]: 20 mm

Compound: COC(=O)Oc1cccc2c(=O)n(CC(=O)NCC(=O)O)c(=O)oc12 [substance 2, (8-methoxycarbonyloxy-2,4-dioxobenzoxazin-3-yl)-acetyl-glycine]
- Growth areas (diameter) of siderophore indicator strain [1]: 22 mm
- Growth areas (diameter) of siderophore indicator strain (E. coli AB 2847): 10 mm
- Growth areas (diameter) of siderophore indicator strain [2]: 13 mm
- Growth areas (diameter) of siderophore indicator strain [3]: 21 mm

Compound: COC(=O)Oc1cccc2c(=O)n([C@@H](C)C(=O)O)c(=O)oc12 [substance 7, 2-L-(8-methoxycarbonyloxy-2,4-dioxobenzoxazin-3-yl)-propionic acid]
- Growth areas (diameter) of siderophore indicator strain [1]: 10 mm
- Growth areas (diameter) of siderophore indicator strain (E. coli AB 2847): 0 mm
- Growth areas (diameter) of siderophore indicator strain [2]: 0 mm
- Growth areas (diameter) of siderophore indicator strain [3]: 0 mm

Compound: COC(=O)Oc1cccc2c(=O)n(CC(=O)O)c(=O)oc12 [substance 1, (8-methoxycarbonyloxy-2,4-dioxobenzoxazin-3-yl)-acetic acid]
- Growth areas (diameter) of siderophore indicator strain [1]: 18 mm
- Growth areas (diameter) of siderophore indicator strain (E. coli AB 2847): 15 mm
- Growth areas (diameter) of siderophore indicator strain [2]: 0 mm
- Growth areas (diameter) of siderophore indicator strain [3]: 13 mm

Compound: COC(=O)Oc1cccc2c(=O)n(N=Cc3ccc(C(=O)O)cc3)c(=O)oc12 [substance 9, 4-[(8-methoxycarbonyloxy-2,4-dioxobenzoxazin-3-yl-imino)-methyl]-benzoic acid]
- Growth areas (diameter) of siderophore indicator strain [1]: 0 mm
- Growth areas (diameter) of siderophore indicator strain (E. coli AB 2847): 24 mm
- Growth areas (diameter) of siderophore indicator strain [2]: 0 mm
- Growth areas (diameter) of siderophore indicator strain [3]: 16 mm
